Experimental data published in patent publication US20100266591A1, “METHOD OF TREATING ERYTHROPOIETIN HYPORESPONSIVE ANEMIAS” (priority 2008, published 2010).
“Also recorded” adds a separate entry of the source.

Experiments:
[1] = system: normal rats; settings: single subcutaneous dose, compared to rhEPO and darbepoetin; cited from earlier work
[2] = cited from earlier work
[3] = system: UT7 cells; settings: UT-7EPO cells; cited from earlier work
[4] = per mg of protein; cited from earlier work
[5] = system: Tg197 mice; assay: Hgb response in Tg197 mice (anemia of chronic disease); type: in vivo, mouse
Source text: The pharmacodynamics of epoetin-α in C57Bl/6 and Tg197 mice was first compared. Secondly, CNTO 530, epoetin-α and darbepoetin in Tg197 mice was compared.
Materials and Methods. Nine-week old heterozygous Tg197-CBA F1 transgenic mice, age-matched C57Bl/6 mice and age-matched CBA-057Bl/6 F1 hybrid (CBF1) mice were obtained from Ace Laboratories (Boyertown, Pa.), Ace Laboratories and Jackson Laboratories (Bar Harbor, Me.), respectively. Founder Tg197 mice for the transgenic colony was obtained from G. Kollias. The breeding stock was maintained as homozygotes and received weekly injections of murine anti-human TNFa antibodies (10 mg/kg intraperitoneally) to control their arthritis. For these experiments, homozygous Tg197 males were bred to CBA females. CBF1 mice were used because their disease progresses more slowly than that seen in homozygous Tg197 mice. The mice were group housed (4 per cage) in filter-topped plastic shoebox style cages. The animals were individually identified with ear tags, placed at least a week prior to the start of the study. […] All mice were maintained in the pathogen-free vivarium at Centocor R&D, Inc., Radnor Pa. The Institutional Animal Care and Use Committee at Centocor approved all associated procedures.
CNTO 530, recombinant human erythropoietin (epoetin-α, OrthoBiotech, Raritian N.J.), darbepoetin (Amgen, Thousand Oaks, Calif.), and PBS. Doses were expressed as mg/kg or UT-7 Units/kg (U/kg).
To comparative the pharmacodynamics of epoetin-α in C57Bl/6 and Tg197 mice, study animals were assigned to groups as shown in Table 1. On Day 0 the mice received a weight-adjusted, subcutaneous injection of test article (freshly diluted from stock) or PBS. Mice were euthanized by CO2 asphyxiation and blood was collected for each sample. […]
Hematology: Blood samples from mice in the model characterization and pharmacodynamic studies were collected at the times indicated in Tables 1 and 2. […] Data are expressed as group mean±standard deviation. Results: Data are expressed as the group mean and standard deviation or as group mean change from control. […]

[6] = system: ala +/+ mice; assay: Hgb response in normal ala +/+ littermates; type: in vivo, mouse; settings: single subcutaneous dose, 12,000 U/kg
[7] = system: C57Bl/6 mice; assay: Hgb response in C57Bl/6 mice (Example 1); type: in vivo, mouse
Source text: To comparative the pharmacodynamics of epoetin-α in C57Bl/6 and Tg197 mice, study animals were assigned to groups as shown in Table 1. On Day 0 the mice received a weight-adjusted, subcutaneous injection of test article (freshly diluted from stock) or PBS. Mice were euthanized by CO2 asphyxiation and blood was collected for each sample.
Hematology: Blood samples from mice in the model characterization and pharmacodynamic studies were collected at the times indicated in Tables 1 and 2. Blood was collected from mice anesthetized with a CO2 mixture via open chest cardiac puncture into commercially prepared EDTA coated microtubes. Blood analyses were performed on whole blood using the ADVIA 120 blood analyzer (Bayer Diagnostics, Tarrytown, N.Y.). Data are expressed as group mean±standard deviation. Results: Data are expressed as the group mean and standard deviation or as group mean change from control. Mean values for the PBS control mice were used as the Day 1 baseline. For graphing, the nominal day may differ from the actual day of blood sampling by 1 day. Mean (±standard deviation) hematological data for 30 CBF1 and 50 Tg197 PBS control mice (9 to 13 weeks old) are shown in Table 3.

[8] = system: W/Wv mice; assay: Hgb response in c-kit deficient (W/Wv) mice; type: in vivo, mouse; settings: single subcutaneous dose, 12,000 U/kg
Procedure: Materials and Methods. Male and female WBB6F1/J-KitW/KitW-v (black eyed, white coat, affected; Related genotype ala KitW/KitW-v) (W/Wv) mice were obtained from Jackson Laboratories, Bar Harbor, Me. at 5 to 7 weeks of age. These mice are deficient in c-kit the receptor for SCF. The mice were group housed in filter topped plastic shoe-box style cages. CNTO 530 (30 UT-7 Units/ug) and epoetin-α (120 UT-7 Units/ug) were tested and PBS pH 7.4 was used as the control article. Study Design: On Day 1 mice received a weight-adjusted, subcutaneous (s.c.) dose of epoetin-α, CNTO 530 or PBS (10 mL/kg) according to Table 4. Three mice/sex were bled per group at each designated time point according to Table 4. On Days 4, 9, 14, and 28 (males) or 30 (females), mice were anesthetized with CO2 and blood samples ([…]) taken via open chest cardiac puncture for hematology. Blood was collected directly into tubes prepared with EDTA and mixed thoroughly for approximately 10 seconds and placed on a rocker to prevent coagulation. Whole blood was be analyzed using an ADVIA 120 hematology analyzer.
Results. Data are expressed as the group mean and standard deviation or as group mean change from control. Mean values for the PBS control mice were used as the Day 1 baseline. For graphing, the nominal day may differ from the actual day of blood sampling by 1 day.

[9] = system: UT7 cells; assay: UT7 cell proliferation assay; type: cell-based, human
Procedure: Particularly useful in identifying and calibrating compositions useful in the method of the invention is the UT7 cell proliferation assay. The UT7 is a human leukemic cell line that has been adapted to become EPO-dependant. In order to use the UT7 cell proliferation assay for selection of a composition or a dose to be administered to a subject having low blood hemoglobin content, the cells are washed free or normal culture medium and starved for EPO for 24 hours prior to assay. For example, the UT-7 cell starvation can proceed in IMDM media with added L-glutamine and FBS at 5% (I5Q). The cells are then prepared and suspended in the appropriate media to a final concentration of 6×10^5 cells/mL (yields a final concentration of 30,000 cells per 96-well chamber). An EPO standard is prepared by diluting EPO stock to 5 ng/mL followed by 1:2 serial dilutions down to a concentration of 0.0098 ng/mL in I5Q media. […] Cell proliferation is assessed using a vital stain such as Promega's MTS solution (Promega, Madison, Wis.) according to the manufacturer's instructions. The EC50 is calculated from a curve fit of concentration vs proliferation as measured by the increase in absorbance of the chromophore or other signal. […]
Using UT-7 cells, which display EPO-R and require an ESA for proliferation, competitive binding for the human EPO-R between CNTO 530 inhibited and ^125I-EPO was measured. […]

[10] = molecular target: T1, human EPO-R displayed on UT-7 cells (human, UniProt P19235 25-508); assay: cell-based or functional assay
T1 sequence: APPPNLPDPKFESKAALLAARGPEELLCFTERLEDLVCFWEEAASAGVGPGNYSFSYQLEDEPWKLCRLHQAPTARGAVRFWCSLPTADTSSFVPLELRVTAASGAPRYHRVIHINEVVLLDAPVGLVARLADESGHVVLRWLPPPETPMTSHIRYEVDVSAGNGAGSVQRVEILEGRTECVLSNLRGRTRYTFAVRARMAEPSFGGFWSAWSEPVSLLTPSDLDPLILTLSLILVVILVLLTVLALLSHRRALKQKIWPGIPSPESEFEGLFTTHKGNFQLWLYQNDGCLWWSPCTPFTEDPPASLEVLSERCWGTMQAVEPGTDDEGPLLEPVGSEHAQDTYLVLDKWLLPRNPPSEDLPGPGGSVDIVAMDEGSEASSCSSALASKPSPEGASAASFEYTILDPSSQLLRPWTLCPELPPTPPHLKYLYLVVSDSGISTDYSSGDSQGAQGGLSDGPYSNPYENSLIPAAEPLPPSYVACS

[11] = molecular target: T2, EPO-receptor (form in the assay not stated) (human, UniProt P19235 25-508, limits assumed); assay: assay not stated
T2 sequence: T1 sequence

[12] = molecular target: T1, human EPO-R displayed on UT-7 cells; assay: competitive binding against 125I-EPO (0.5 nM) on UT-7 cells displaying human EPO-R
Procedure: Using UT-7 cells, which display EPO-R and require an ESA for proliferation, competitive binding for the human EPO-R between CNTO 530 inhibited and ¹²⁵I-EPO was measured.

CNTO 528: EPO-mimetic peptide antibody fusion protein; disulfide-linked homodimer of SEQ ID NO: 2, two EMP1 copies and portions of human IgG
hematology response / efficacy [1]: longer-lived reticulocytosis and a longer-lived increase in hemoglobin; also recorded: only minor changes in red cell distribution width (RDW) or mean cell volume (MCV); also recorded: no effect on mean platelet volume (MPV); also recorded: efficacious in rat models of anemia and in a rat model of pure red cell aplasia
pharmacodynamic response ([2]; IV 0.03-0.9 mg/kg): prolonged, dose-dependent erythropoietic responses; also recorded: dose dependent increase in RBC count; also recorded: dose-dependent increase in soluble transferrin receptor concentration; also recorded: dose-dependent increase in endogenous EPO concentration
tolerability ([2]; IV 0.03-0.9 mg/kg): well tolerated
pharmacokinetics ([2]; IV): linear and approximately dose proportional
mean Hgb concentration above baseline at last measurement ([2]; approximately 2.5 months after a single dose): 0.4 g/dL
immunogenicity ([2]; human, in vivo): No immunogenicity was observed
time of maximum effect on Hgb concentration ([2]; single IV dose): 22 days
fold less potent than rhEPO on a molar basis, growth stimulation [3]: approximately 10 fold

Human urinary EPO: isolated human urinary EPO, international reference standard for EPO assays
specific activity [4]: about 70,000 U/mg

epoetin-α: recombinant human erythropoietin (OrthoBiotech), 166 amino acid sequence SEQ ID NO: 1
Hgb response (increase) ([5]; 0.3 mg/kg s.c., single dose): ~1 g/dL
day Hgb returned to baseline ([5]; 0.3 mg/kg s.c., single dose): ≤ 8 days
Hgb response ([5]; single s.c. dose, comparison at 30,000 U/kg): little dose response between 0.03 and 0.3 mg/kg
increase in Hgb [6]: approximately 2 g/dL
day Hgb returned to baseline ([7]; 0.3 mg/kg s.c., single dose): 15 days
increase in Hgb ([7]; 0.3 mg/kg s.c., single dose): ~1.5 g/dL
Hgb response ([7]; 0.03 and 0.3 mg/kg s.c.): dose-dependent increase in hemoglobin
increase in hemoglobin [8]: less than 1 g/dL
specific activity [4]: 100,000 to 200,000 U/mg
in vitro activity [9]: 120 UT-7 Units/ug
EC50 ([9]; 48 hours, MTS): ~0.018 nM

B1: CNTO 530 (Fc fusion)
chain: QIQGGTYSCHFGPLTWVCKPQGGGSCPPCPAPEAAGGPSVFLFPPKPKDTLMISRTPEVTCVVVDVSQEDPEVQFNWYVDGVEVHNAKTKPREEQFNSTYRVVSVLTVLHQDWLNGKEYKCKVSNKGLPSSIEKTISKAKGQPREPQVYTLPPSQEEMTKNQVSLTCLVKGFYPSDIAVEWESNGQPENNYKTTPPVLDSDGSFFLYSRLTVDKSRWQEGNVFSCSVMHEALHNHYTQKSLSLSLGK
notes: EPO-mimetic peptide antibody fusion protein; Homodimer joined by disulfide bonds through cysteines in the immunoglobulin-derived portion; May or may not be glycosylated; also called Dimeric EMP1 construct: CNTO 530
induction of UT-7 cell proliferation (EC50) [10]: ~0.055 nM
potency against rHuEPO in a simple proliferation assay using UT-7 cells [10]: ~24 fold less potent than rHuEPO (molar)
rescue of EPO-deprived UT-7 cells from apoptosis (EC50) [10]: ~0.021 nM
Kd [11]: ~10 nM
IC50 [12]: ~60 nM
